Results from patent publication US11498923B2 (Merck Sharp & Dohme Corp., priority 2017, dated 2022).

Molecular target: T1, human A2a receptor (Homo sapiens, UniProt P29274)
T1 construct: purchased Perkin-Elmer RBHA2AM400UA; host or cells: HEK293 cells, used as a membrane preparation
Experiment: A2a receptor competition binding assay (Scintillation Proximity)
Settings: membranes from HEK293 cells expressing human A2a receptor; 0.5 nM tritiated ligand; Cheng-Prusoff; read-out: A2a Ki
Procedure, shortened: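 HEK293 membranes bearing the human receptor, pretreated with adenosine deaminase, competed against 0.5 nM tritiated pyrazolotriazolopyrimidine antagonist with compound at 3000–0.15 nM final in DPBS plus 10 mM MgCl2. SPA bead readout after 1 h at room temperature; Ki from EC50 via Cheng-Prusoff.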

T1 sequence (P29274 whole entry): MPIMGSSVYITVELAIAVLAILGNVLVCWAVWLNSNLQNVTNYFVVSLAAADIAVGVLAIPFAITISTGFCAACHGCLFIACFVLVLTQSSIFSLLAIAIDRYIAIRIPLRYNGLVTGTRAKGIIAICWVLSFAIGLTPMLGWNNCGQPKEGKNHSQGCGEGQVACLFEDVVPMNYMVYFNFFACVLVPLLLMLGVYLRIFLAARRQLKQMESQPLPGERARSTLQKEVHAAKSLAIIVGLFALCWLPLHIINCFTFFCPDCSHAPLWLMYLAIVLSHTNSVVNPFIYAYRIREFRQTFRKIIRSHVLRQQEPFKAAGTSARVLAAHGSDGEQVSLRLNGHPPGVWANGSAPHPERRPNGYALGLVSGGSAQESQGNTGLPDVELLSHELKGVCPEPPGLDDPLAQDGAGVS

Compound	Ki [nM]
COc1cccc2c1nc(N)n1cc(C(=O)N3CCCC(OC)C3)nc21 (stereo not shown) [Ex-240, (5-amino-7-methoxyimidazo[1,2-c]quinazolin-2-yl)(3-methoxypiperidin-1-yl)methanone]	30.6
COc1cccc2c1nc(N)n1cc(C(=O)N3CCCC(F)(F)C3)nc21 [Ex-241, (5-amino-7-methoxyimidazo[1,2-c]quinazolin-2-yl)(3,3-difluoropiperidin-1-yl)methanone]	13
COc1cccc2c1nc(N)n1cc(C(=O)N3CCCC4(CC4)C3)nc21 [Ex-242, (5-amino-7-methoxyimidazo[1,2-c]quinazolin-2-yl)(5-azaspiro[2.5]octan-5-yl)methanone]	4.3
CC(=O)Nc1ccc2c(c1)CN(C(=O)c1cn3c(N)nc4c(F)cccc4c3n1)CC2 [Ex-244, N-(2-(5-amino-7-fluoroimidazo[1,2-c]quinazoline-2-carbonyl)-1,2,3,4-tetrahydroisoquinolin-7-yl)acetamide]	49.6
COc1cccc2c1nc(N)n1cc(C(=O)N3CCN4CCCC[C@@H]4C3)nc21 [Ex-245, (R)-(5-amino-7-methoxyimidazo[1,2-c]quinazolin-2-yl)(octahydro-2H-pyrido[1,2-a]pyrazin-2-yl)methanone]	152
Nc1nc2c(F)cccc2c2nc(C(=O)NCc3ccccc3CN3CCN(c4ccccn4)CC3)cn12 [Ex-246, 5-amino-7-fluoro-N-(2-((4-(pyridin-2-yl)piperazin-1-yl)methyl)benzyl)imidazo[1,2-c]quinazoline-2-carboxamide]	21
Nc1nc2c(F)cccc2c2nc(C(=O)N3CCc4cccc(CN5CCN(c6ccc(F)cc6F)CC5)c4C3)cn12 [Ex-247]	120
Nc1nc2c(F)cccc2c2nc(C(=O)NC3CCNc4ccccc43)cn12 (stereo not shown) [Ex-248, 5-amino-7-fluoro-N-(1,2,3,4-tetrahydroquinolin-4-yl)imidazo[1,2-c]quinazoline-2-carboxamide]	9
Nc1nc2c(F)cccc2c2nc(C(=O)NCc3ccccc3CN3CCN(c4ccc(F)cc4F)CC3)cn12 [Ex-249, 5-amino-N-(2-((4-(2,4-difluorophenyl)piperazin-1-yl)methyl)benzyl)-7-fluoroimidazo[1,2-c]quinazoline-2-carboxamide]	18
Nc1nc2c(F)cccc2c2nc(C(=O)NCc3ccccc3N3CCOCC3)cn12 [Ex-250, 5-amino-7-fluoro-N-(2-morpholinobenzyl)imidazo [1,2-c]quinazoline-2-carboxamide]	2
Nc1nc2c(F)cccc2c2nc(C(=O)N3CCc4cccc(CN5CCN(c6ccccn6)CC5)c4C3)cn12 [Ex-251, (5-amino-7-fluoroimidazo[1,2-c]quinazolin-2-yl)(8-((4-(pyridin-2-yl)piperazin-1-yl)methyl)-3,4-dihydroisoquinolin-2(1H)-yl)methanone]	91
Nc1nc2c(F)cccc2c2nc(C(=O)NCc3cccc(N4CCN(c5ccc(F)cc5F)CC4)c3)cn12 [Ex-252, 5-amino-N-(3-(4-(2,4-difluorophenyl)piperazin-1-yl)benzyl)-7-fluoroimidazo[1,2-c]quinazoline-2-carboxamide]	7.2
COCCOc1ccc(N2CCN(c3ccccc3CNC(=O)c3cn4c(N)nc5c(F)cccc5c4n3)CC2)cc1 [Ex-253, 5-amino-7-fluoro-N-(2-(4-(4-(2-methoxyethoxy)phenyl)piperazin-1-yl)benzyl)imidazo[1,2-c]quinazoline-2-carboxamide]	3.7
COCCOc1ccc(N2CCN(c3cccc(CNC(=O)c4cn5c(N)nc6c(F)cccc6c5n4)c3)CC2)cc1 [Ex-254, 5-amino-7-fluoro-N-(3-(4-(4-(2-methoxyethoxy)phenyl)piperazin-1-yl)benzyl)imidazo[1,2-c]quinazoline-2-carboxamide]	5.1
Nc1nc2c(F)cccc2c2nc(C(=O)NCc3ccccc3CN3CCOCC3)cn12 [Ex-255, 5-amino-7-fluoro-N-(2-(morpholinomethyl)benzyl) imidazo[1,2-c]quinazoline-2-carboxamide]	6.1
CC(C)(C)OC(=O)N1CCN(c2ccccc2CNC(=O)c2cn3c(N)nc4c(F)cccc4c3n2)CC1 [Ex-256, tert-butyl 4-(2-((5-amino-7-fluoroimidazo[1,2-c]quinazoline-2-carboxamido)methyl)phenyl) piperazine-1-carboxylate]	4.5
Nc1nc2c(F)cccc2c2nc(C(=O)NCc3cccc(N4CCOCC4)c3)cn12 [Ex-257, 5-amino-7-fluoro-N-(3-morpholino-benzyl)imidazo-[1,2-c]-quinazoline-2-carboxamide]	3.6
Nc1nc2c(F)cccc2c2nc(C(=O)NCc3cccc(CN4CCOCC4)c3)cn12 [Ex-258, 5-amino-7-fluoro-N-(3-(morpholinomethyl)benzyl) imidazo[1,2-c]quinazoline-2-carboxamide]	2.3
CC(C)(C)OC(=O)N1CCC2(CCN(C(=O)c3cn4c(N)nc5c(F)cccc5c4n3)C2)C1 (stereo not shown) [Ex-259, tert-butyl 7-(5-amino-7-fluoroimidazo[1,2-c]quinazoline-2-carbonyl)-2,7-diazaspiro[4.4]nonane-2-carboxylate]	29

Compound	Ki [nM]
CC(C)(C)OC(=O)N1CCC2(CCCN(C(=O)c3cn4c(N)nc5c(F)cccc5c4n3)C2)C1 (stereo not shown) [Ex-260, tert-butyl 7-(5-amino-7-fluoroimidazo[1,2-c]quinazoline-2-carbonyl)-2,7-diazaspiro[4.5]decane-2-carboxylate]	15
Nc1nc2c(F)cccc2c2nc(C(=O)NCc3ccccc3N3CCNCC3)cn12 [Ex-261, 5-amino-7-fluoro-N-(2-(piperazin-1-yl)benzyl)imidazo[1,2-c]quinazoline-2-carboxamide]	5.4
CC(C)(C)OC(=O)N1CCC2(CCN(C(=O)c3cn4c(N)nc5c(F)cccc5c4n3)CC2)C1 [Ex-262, tert-butyl 8-(5-amino-7-fluoroimidazo[1,2-c]quinazoline-2-carbonyl)-2,8-diazaspiro[4.5]decane-2-carboxylate]	53
Nc1nc2c(F)cccc2c2nc(C(=O)NCc3ccccc3OC3CCN(c4ccccn4)CC3)cn12 [Ex-263, 5-amino-7-fluoro-N-(2-((1 (pyridin-2-yl)piperidin-4-yl)oxy)benzyl)imidazo[1,2-c]quinazoline-2-carboxamide]	2.9
CC(=O)N1CCN(c2ccccc2CNC(=O)c2cn3c(N)nc4c(F)cccc4c3n2)CC1 [Ex-264, N-(2-(4-acetylpiperazin-1-yl)benzyl)-5-amino-7-fluoroimidazo[1,2-c]quinazoline-2-carboxamide]	2.5
CC(C)(C)OC(=O)N1CCCC2(CCN(C(=O)c3cn4c(N)nc5c(F)cccc5c4n3)CC2)C1 [Ex-265, tert-butyl 9-(5-amino-7-fluoroimidazo[1,2-c]quinazoline-2-carbonyl)-2,9-diazaspiro[5.5]undecane-2-carboxylate]	86
Nc1nc2c(F)cccc2c2nc(C(=O)N3CCCC4(CCNC4)C3)cn12 (stereo not shown) [Ex-266, (5-amino-7-fluoroimidazo[1,2-c]quinazolin-2-yl)(2,7-diazaspiro[4.5]decan-7-yl)methanone]	220
Nc1nc2c(F)cccc2c2nc(C(=O)N3CCC4(CCNC4)CC3)cn12 [Ex-267, (5-amino-7-fluoroimidazo[1,2-c]quinazolin-2-yl)(2,8-diazaspiro[4.5]decan-8-yl)methanone]	710
Nc1nc2c(F)cccc2c2nc(C(=O)N3CCCC4(CCNC4)C3)cn12 (stereo not shown) [Ex-268, (5-amino-7-fluoroimidazo[1,2-c]quinazolin-2-yl)(2,7-diazaspiro[4.5]decan-7-yl)methanone]	66
CC(=O)N1CCC2(CCN(C(=O)c3cn4c(N)nc5c(F)cccc5c4n3)CC2)C1 [Ex-269, 1-(8-(5-amino-7-fluoroimidazo[1,2-c]quinazoline-2-carbonyl)-2,8-diazaspiro[4.5]decan-2-yl)ethan-1-one]	200
Nc1nc2c(F)cccc2c2nc(C(=O)N3CCC4(CCCNC4)CC3)cn12 [Ex-270, (5-amino-7-fluoroimidazo[1,2-c]quinazolin-2-yl)(2,9-diazaspiro[5.5]undecan-9-yl)methanone]	100
Nc1nc2c(F)cccc2c2nc(C(=O)NCc3ccccc3N3CCN(CCCO)CC3)cn12 [Ex-271, 5-amino-7-fluoro-N-(2-(4-(3-hydroxypropyl)-piperazin-1-yl)benzyl)-imidazo[1,2-c]-quinazoline-2-carboxamide]	12
Nc1nc2c(F)cccc2c2nc(C(=O)N3CCC4(CCNC4)C3)cn12 (stereo not shown) [Ex-272, (5-amino-7-fluoroimidazo[1,2-c]quinazolin-2-yl)(2,7-diazaspiro[4.4]nonan-2-yl)methanone]	380
Nc1nc2c(F)cccc2c2nc(C(=O)N3CCC4(CCN(Cc5ccc(F)cc5)C4)C3)cn12 (stereo not shown) [Ex-273, (5-amino-7-fluoroimidazo[1,2-c]quinazolin-2-yl)(7-(4-fluorobenzyl)-2,7-diazaspiro[4.4]nonan-2-yl)methanone]	110
CC(=O)N1CCC2(CCN(C(=O)c3cn4c(N)nc5c(F)cccc5c4n3)C2)C1 (stereo not shown) [Ex-274, 1-(7-(5-amino-7-fluoroimidazo[1,2-c]quinazoline-2-carbonyl)-2,7-diazaspiro[4.4]nonan-2-yl)ethan-1-one]	32
N#Cc1ccc(N2CCC3(CCN(C(=O)c4cn5c(N)nc6c(F)cccc6c5n4)C3)C2)c(F)c1 (stereo not shown) [Ex-275, 4-(7-(5-amino-7-fluoroimidazo[1,2-c]quinazoline-2-carbonyl)-2,7-diazaspiro[4.4]nonan-2-yl)-3-fluorobenzonitrile]	43
CCCN1CCC2(CCCN(C(=O)c3cn4c(N)nc5c(F)cccc5c4n3)C2)C1 (stereo not shown) [Ex-276, (5-amino-7-fluoroimidazo[1,2-c]quinazolin-2-yl)(2-propyl-2,7-diazaspiro[4.5]decan-7-yl)methanone]	130
CCCN1CCC2(CCN(C(=O)c3cn4c(N)nc5c(F)cccc5c4n3)CC2)C1 [Ex-277, (5-amino-7-fluoroimidazo[1,2-c]quinazolin-2-yl)(2-propyl-2,8-diazaspiro[4.5]decan-8-yl)methanone]	430
